# Measurements taken from patent US7767240B2, “Microbiological control in poultry processing” (priority 2001, dated 2010).
# Legend:
# Assay type in all cases: cell-based
# [1] = system: Campylobacter jejuni ATCC 29428; test: Bacteria count per bird over 20-day storage (Example 4); conditions: pH 8
# Protocol: (§1) A study was conducted to determine the effect of Clorox® bleach, and 1,3-dibromo-5,5-dimethylhydantoin (DBDMH) on carcass bacteria residual after 1.5 hour in a chill tank solution and spoilage 20-day shelf life longevity (caused by bacteria contamination). Tests were conducted at pH 8 (adjusted by trisodium phosphate). Skin pigmentation (Minolta Color Meter L value or Lightness, a value or redness and b value or yellowness) were determined before and post-processing.
# (§2) In general the study involved normal processing of 56-day-old birds, immersing carcasses first in a warm bath containing 10^4 per mL Escherichia coli, 10^4 per mL Salmonella enteritidis, 10^4 per mL Pseudomonas aeruginosa, 10^4 per mL Campylobacter jejuni, and 10^4 per mL spoilage bacteria each from […] strains (Listeria monocytogenes and Shigella sonnei). Carcass were then immersed in a chill tank “soup”, containing normal organic fluids (blood, fat, skin, and meat particles) and containing various disinfectants (termed test materials).
# (§3) A DBDMH stock solution and test solutions, a bacteria stock solution, and a “chicken soup” were prepared as in Example 3. In addition, the bacterial broth treatments, the whole bird wash sampling procedure, and the methodologies used for quantitative or qualitative determinations for bacterial organisms were conducted as in Example 3.
# (§4) In greater detail the trial events and experimental design used in this group of tests were as follows: • a) Test microorganisms used were: • Escherichia coli ATCC 11229 • Pseudomonas aeruginosa ATCC 15442 • Salmonella enteritidis ATCC 13076 • Shigella sonnei ATCC 9290 • Listeria monocytogenes ATCC 7644 • Campylobacter jejuni ATCC 29428 • b) Test Procedure: All test strains were grown individually at 35° C. for 24 hours in the media specified in Table 12. Cells were harvested by centrifugation at 10,000×g for 10 minutes and washed twice with Butterfield's Phosphate Buffer (BPB of pH 7.2). Cells were resuspended in BPB to obtain a cell suspension of approximately 1.0×10^8 CFU/mL for each microorganism. The target inoculum levels were approximately 10^6 CFU/mL in the final test solutions. In the cases of S. enteritidis and P. aeruginosa the species were washed by pouring into prepared sterile centrifuge tubes with cheesecloth filters. The culture was then pelleted and washed using above techniques and repeated 3 times. • c) The birds (56 days old) were processed under normal commercial conditions. • d) The bacteria were added to a large batch of the “chicken soup”, and then aliquots of the resultant mixture were distributed equally among the chill waters used for each test. Then the particular disinfectant composition under test was added to one of the chill waters. […]
# [2] = system: Shigella sonnei ATCC 9290; test: as above; conditions: pH 8
# Protocol: as §1, §2, §3, §4
# [3] = system: biofilm-associated HPC (heterotrophic plate count) bacteria; test: HPC bacteria eradication in biofilm, PVC sampling pipes
# From the text: In another group of tests, the results of which are depicted in FIGS. 5 through 10, several bromine-based microbiocides of this invention were utilized in tests illustrating their effectiveness in eradicating or controlling Heterotrophic Plate Count bacteria i.e., a mixture of naturally-occurring pathogenic bacteria of various unidentified species. These bacteria were challenged both in the form of biofilms and in planktonic form.
# The experimental conditions utilized in these tests involved use of an apparatus consisting of three parallel transparent PVC sampling pipes. These pipes were used for collection of biofilm (i.e., sessile or surface attached) bacteria samples; one as control pipe, one for a relatively low biocide concentration and the third for a higher biocide concentration. The biocide challenge in each case was divided into three phases. First was a 14-day inoculation. Next was a 48-hour disinfection period. Finally a 2-week recovery period was provided. The biocide under test was slug-dosed and during the first hour of exposure, the concentration was adjusted to achieve the desired concentration level.
# The source of the naturally-grown heterotrophic plate count (HPC) bacteria was sediment and associated water collected from the recirculating hot water system of a hospital. […]
compound,measurement,setting,value
"CC1(C)C(=O)N(Br)C(=O)N1Br [DBDMH, 1,3-dibromo-5,5-dimethylhydantoin]","average bacteria count per bird, C. jejuni","[1]; Day 0, 10 ppm",519 per bird
same,"average bacteria count per bird, C. jejuni","[1]; Day 0, 20 ppm",17 per bird
same,"average bacteria count per bird, C. jejuni","[1]; Day 2, 10 ppm",573 per bird
same,"average bacteria count per bird, C. jejuni","[1]; Day 2, 20 ppm",25 per bird
same,"average bacteria count per bird, C. jejuni","[1]; Day 4, 10 ppm",627 per bird
same,"average bacteria count per bird, C. jejuni","[1]; Day 4, 20 ppm",39 per bird
same,"average bacteria count per bird, C. jejuni","[1]; Day 6, 10 ppm",671 per bird
same,"average bacteria count per bird, C. jejuni","[1]; Day 6, 20 ppm",78 per bird
same,"average bacteria count per bird, C. jejuni","[1]; Day 8, 10 ppm",834 per bird
same,"average bacteria count per bird, C. jejuni","[1]; Day 8, 20 ppm",157 per bird
same,"average bacteria count per bird, C. jejuni","[1]; Day 10, 10 ppm",1043 per bird
same,"average bacteria count per bird, C. jejuni","[1]; Day 10, 20 ppm",294 per bird
same,"average bacteria count per bird, C. jejuni","[1]; Day 12, 10 ppm",1309 per bird
same,"average bacteria count per bird, C. jejuni","[1]; Day 12, 20 ppm",594 per bird
same,"average bacteria count per bird, C. jejuni","[1]; Day 14, 10 ppm",1551 per bird
same,"average bacteria count per bird, C. jejuni","[1]; Day 14, 20 ppm",1191 per bird
same,"average bacteria count per bird, C. jejuni","[1]; Day 16, 10 ppm",1880 per bird
same,"average bacteria count per bird, C. jejuni","[1]; Day 16, 20 ppm",2259 per bird
same,"average bacteria count per bird, C. jejuni","[1]; Day 18, 10 ppm",2359 per bird
same,"average bacteria count per bird, C. jejuni","[1]; Day 18, 20 ppm",2835 per bird
same,"average bacteria count per bird, C. jejuni","[1]; Day 20, 10 ppm",2789 per bird
same,"average bacteria count per bird, C. jejuni","[1]; Day 20, 20 ppm",3059 per bird
same,"average bacteria count per bird, S. sonnei","[2]; Day 0, 10 ppm",845 per bird
same,"average bacteria count per bird, S. sonnei","[2]; Day 0, 20 ppm",8 per bird
same,"average bacteria count per bird, S. sonnei","[2]; Day 2, 10 ppm",962 per bird
same,"average bacteria count per bird, S. sonnei","[2]; Day 2, 20 ppm",12 per bird
same,"average bacteria count per bird, S. sonnei","[2]; Day 4, 10 ppm",1101 per bird
same,"average bacteria count per bird, S. sonnei","[2]; Day 4, 20 ppm",19 per bird
same,"average bacteria count per bird, S. sonnei","[2]; Day 6, 10 ppm",1288 per bird
same,"average bacteria count per bird, S. sonnei","[2]; Day 6, 20 ppm",37 per bird
same,"average bacteria count per bird, S. sonnei","[2]; Day 8, 10 ppm",1604 per bird
same,"average bacteria count per bird, S. sonnei","[2]; Day 8, 20 ppm",76 per bird
same,"average bacteria count per bird, S. sonnei","[2]; Day 10, 10 ppm",1954 per bird
same,"average bacteria count per bird, S. sonnei","[2]; Day 10, 20 ppm",156 per bird
same,"average bacteria count per bird, S. sonnei","[2]; Day 12, 10 ppm",2347 per bird
same,"average bacteria count per bird, S. sonnei","[2]; Day 12, 20 ppm",323 per bird
same,"average bacteria count per bird, S. sonnei","[2]; Day 14, 10 ppm",2848 per bird
same,"average bacteria count per bird, S. sonnei","[2]; Day 14, 20 ppm",657 per bird
same,"average bacteria count per bird, S. sonnei","[2]; Day 16, 10 ppm",3513 per bird
same,"average bacteria count per bird, S. sonnei","[2]; Day 16, 20 ppm",1286 per bird
same,"average bacteria count per bird, S. sonnei","[2]; Day 18, 10 ppm",4242 per bird
same,"average bacteria count per bird, S. sonnei","[2]; Day 18, 20 ppm",1604 per bird
same,"average bacteria count per bird, S. sonnei","[2]; Day 20, 10 ppm",4941 per bird
same,"average bacteria count per bird, S. sonnei","[2]; Day 20, 20 ppm",1834 per bird
same,biofilm-associated HPC bacteria eradicated,"[3]; 0.5 ppm as bromine, within three hours",over 99%
same,biofilm-associated HPC bacteria eradicated,"[3]; 5 ppm as bromine, within twelve hours",~99.9%
